{"source": "patent US11541105B2", "about": "“Compositions and methods for disrupting biofilm formation and maintenance” (The Research Foundation for the State University of new York, priority 2018, dated 2023)", "key": {"P. aeruginosa biofilms [1]": {"system": "P. aeruginosa biofilms", "experiment": "Biofilm dispersion in 24-well plates, crystal violet staining of remaining biofilm biomass", "type": "cell-based, Pseudomonas aeruginosa", "settings": "controls: heat-inactivated PDH increasing concentrations; cofactors; acetyl-CoA 0.2 mM; NADH 2 mM; lactate 10 mM", "quoted_text": "P. aeruginosa biofilms grown for 4 days in 24-well plates were exposed to pyruvate-depleting conditions. This was accomplished by exposing biofilms to increasing concentration of the enzyme pyruvate dehydrogenase (PDH) having a specific activity of 0.57 U/mg. PDH catalyzes the conversion of pyruvate to acetyl-CoA in the presence of CoA and NAD^+. Specifically, biofilms were exposed to 5, 10, and 20 mU (8.7, 17.4, and 32.8 mg enzyme) of PDH in the presence of NAD^+ and CoA. Biofilms grown in LB but left untreated were used as controls. Following overnight incubation, the remaining biofilm was stained using crystal violet.\nBiofilms were grown in a 24-well plate system modified from the procedure described by Caiazza and O'Toole (2004) to elucidate the role of pyruvate in biofilm formation and biofilm dispersion.\nOvernight cultures grown in LB medium were adjusted to an OD600 of 0.05 in fresh 5-fold diluted LB VBMM and grown at 37° C. and rotated at 220 r.p.m. in 24-well microtiter plates at a 45° angle, ensuring that the bottom of the wells is at the air-liquid interface, with the medium exchanged every 12 h.\nFor biofilm dispersion, biofilms were first grown for 4 days after which time the growth medium was supplemented with 10 mU porcine pyruvate dehydrogenase, cofactors (1 mM b-NAD, 1 mM sodium Co-A, 20 μM TPP) and allowed to incubate for an additional 16 h."}, "P. aeruginosa biofilms [2]": {"system": "P. aeruginosa biofilms", "experiment": "Microscopy (confocal, brightfield) of biofilm architecture and microcolony void formation", "type": "cell-based, Pseudomonas aeruginosa", "settings": "4-day biofilms, PDH 10 mU plus 500 uM SNP as NO source, 16 h", "description": "To determine how exposure to PDH accomplished a reduction in the biofilm biomass, the remaining biofilm architecture was visually analyzed by confocal microscopy. Relative to untreated biofilms, biofilms exposed to PDH were not only characterized by an overall reduced biofilm biomass but by microcolonies having central voids (FIGS. 2E3 and 2F2). Void formation has previously linked with biofilm dispersion, a process in which sessile, surface-attached organisms liberate themselves from the biofilm to return to the planktonic state. […] In contrast, the vast majority of microcolonies by untreated biofilms were intact (FIG. 2E1), with only less than 8% of the microcolonies featuring central void formation (FIG. 2G). […]\nDifferences in the biofilm architecture were visualized by crystal violet staining or microscopy (brightfield, confocal laser scanning). Differences in drug susceptibility were evaluated by viability count.\nFIGS. 15A-15F show the effect of PDH nanoparticles (NP) on biofilms. […] Biofilm biomass was quantitatively determined by confocal microscopy and COMSTAT analysis prior/post 24 h PDH treatment. […]\nBiofilms were grown for 4 days in 24-well polystyrene plates in five-fold diluted LB. […] Number of microcolonies as percent of the total colonies counted per treatment group is shown. […]"}, "P. aeruginosa ATCC 27312": {"system": "P. aeruginosa ATCC 27312", "experiment": "Porcine burn wound biofilm infection model", "type": "in vivo, Pseudomonas aeruginosa", "quoted_text": "The well-known clinical burn wound isolate P. aeruginosa ATCC 27312 was employed.\nBurn wounds were inoculated with 25 μl of a standardized P. aeruginosa suspension harboring 10^6 CFU/ml and allowed to establish biofilms for 24 h. Infected wounds were subsequently treated daily with 100 and 200 mU PDH in the absence of presence of 100 μg/ml tobramycin. Untreated wounds and wounds only exposed to carrier solution were used as controls. Following 3 and 6 days of treatment, bacterial cells present in wounds were harvested using a flush and scrub technique that separates biofilm bacteria from planktonic bacteria, by flushing the non-adherent (planktonic) bacteria off the wound, followed by scrubbing of the wound to remove adherent biofilm-associated bacteria from the wound bed.\nSecond degree porcine burn wounds were infected with P. aeruginosa ATCC® 27312™. […] Then, bacterial cells were removed from the wounds and the number of viable cells, as shown in (CFU) per wound determined using viability counts. […] Experiments are representative data obtained using 3 wounds per treatment group (n=3). Error bars represent standard deviation."}, "P. aeruginosa biofilms [3]": {"system": "P. aeruginosa biofilms", "experiment": "Biofilm susceptibility assay, viability count", "type": "cell-based, Pseudomonas aeruginosa", "settings": "4-day biofilms, tobramycin 100 μg/ml, PDH 10 mU where present, overnight", "method": "It is well established that planktonic cells are more susceptible to antimicrobial agents than their counterparts growing as a biofilm, and that dispersion coincides with bacteria transitioning to the planktonic mode of growth. […] P. aeruginosa biofilms grown for 4 days in 24-well plates were exposed to 100 μg/ml tobramycin in the absence of presence of PDH. Following overnight incubation, the number of viable biofilm cells were determined using viability count. […] Tobramycin in the presence of 10 mU PDH coincided with a reduction in the biofilm biomass to 3.5×10^3 cells/biofilm (FIG. 12A), with the reduction in the viable cells being equivalent to an overall 5.9-log reduction in the biofilm biomass relative to untreated biofilms. […] For susceptibility assays, biofilms were grown as for dispersion assays, but following 4 days of growth, the growth medium was supplemented the aminoglycoside antibiotic tobramycin (100 μg/ml), 10 mU porcine pyruvate dehydrogenase, and cofactors (1 mM b-NAD, 1 mM sodium Co-A, 20 μM TPP). Untreated biofilms or biofilms only exposed to cofactors alone were used as controls. Differences in the biofilm architecture were visualized by crystal violet staining or microscopy (brightfield, confocal laser scanning). Differences in drug susceptibility were evaluated by viability count."}}, "data": [{"smiles": "NC(=O)c1ccc[n+]([C@@H]2O[C@H](COP(=O)([O-])OP(=O)(O)OC[C@H]3O[C@@H](n4cnc5c(N)ncnc54)[C@H](O)[C@@H]3O)[C@@H](O)[C@H]2O)c1", "note": "[NAD+]", "values": [{"measurement": "effect on biofilm biomass relative to untreated biofilms", "setting": "P. aeruginosa biofilms [1]", "value": "no effect"}]}, {"smiles": "NC(=O)C1=CN([C@@H]2O[C@H](COP(=O)(O)OP(=O)(O)OC[C@H]3O[C@@H](n4cnc5c(N)ncnc54)[C@H](O)[C@@H]3O)[C@@H](O)[C@H]2O)C=CC1", "note": "[NADH]", "values": [{"measurement": "effect on biofilm biomass relative to untreated biofilms", "setting": "P. aeruginosa biofilms [1]", "value": "did not result in increased biofilm biomass accumulation"}]}, {"smiles": "CC(=O)SCCNC(=O)CCNC(=O)[C@H](O)C(C)(C)COP(=O)(O)OP(=O)(O)OC[C@H]1O[C@@H](n2cnc3c(N)ncnc32)[C@H](O)[C@@H]1OP(=O)(O)O", "note": "[acetyl-CoA]", "values": [{"measurement": "effect on biofilm biomass relative to untreated biofilms", "setting": "P. aeruginosa biofilms [1]", "value": "did not result in increased biofilm biomass accumulation"}]}, {"smiles": "CC(O)C(=O)O", "note": "(stereo not drawn) [lactate]", "values": [{"measurement": "effect on biofilm biomass relative to untreated biofilms", "setting": "P. aeruginosa biofilms [1]", "value": "no difference"}]}, {"smiles": "[N]=O", "note": "[nitric oxide]", "values": [{"measurement": "effect on PDH-induced dispersion of biofilms (microcolonies with void formation)", "setting": "P. aeruginosa biofilms [2]", "value": "can enhance"}]}, {"smiles": "NC[C@H]1O[C@H](O[C@H]2[C@H](O)[C@@H](O[C@H]3O[C@H](CO)[C@@H](O)[C@H](N)[C@H]3O)[C@H](N)C[C@@H]2N)[C@H](N)C[C@@H]1O", "note": "[tobramycin]", "values": [{"measurement": "log reduction of P. aeruginosa biofilms present in porcine burn wounds", "setting": "P. aeruginosa ATCC 27312; as stated in the summary, tobramycin with or without pyruvate-depleting conditions", "value": 2.5, "unit": "log"}, {"measurement": "log reduction in viable biofilm cells (scrub) relative to untreated", "setting": "P. aeruginosa ATCC 27312; tobramycin 100 μg/ml daily", "value": 2, "unit": "log"}, {"measurement": "log reduction of the biofilm biomass (viable cells) relative to untreated", "setting": "P. aeruginosa biofilms [3]", "value": 2.5, "unit": "log"}, {"measurement": "number of viable cells remaining", "setting": "P. aeruginosa biofilms [3]; untreated 2.4×10^8", "value": "1.2×10^5 cells per biofilm"}]}]}
